The structures appear in SMILES notation. Active and inactive are the calls of the source. No rule for the calls is given here.

One experiment concerns the target NS3h 1b (con1). Kind of experiment: strain-dependent HCV NS3h unwinding inhibition – biochemical, real-time fluorescence, genotypes 2a and 1b, Set 2, selectivity assay for HCV NS3 helicase inhibitor project, late-stage follow-up (AID 504419). The settings on record: Recombinant NS3 helicase.
A further experiment concerns the target NS3h 2a (JFH1). The experiment is described as above. The settings on record: Recombinant NS3 helicase.

As for `CCc1cc2c(=O)n(Cc3ccco3)c(SCc3c(C)noc3C)nc2s1`, the IC50 at NS3h 1b (con1) and at NS3h 2a (JFH1) was > 100 µM (inactive) in each case.
For the compound `CCOc1ccc(N2C(=O)C3Sc4[nH]c(=O)sc4C(/C=C/c4ccccc4)C3C2=O)cc1` (configuration not stated), the IC50 at NS3h 1b (con1) and at NS3h 2a (JFH1) was > 100 µM (inactive) each time.
Regarding `COc1ccc(N=Nc2ccc(O)c3ncccc23)c(S(=O)(=O)N(C)C)c1`, the IC50 on NS3h 1b (con1) and on NS3h 2a (JFH1) was > 100 µM (inactive) each time.
As for `CNc1ccc(Br)cc(C(=O)/C=C/c2cc(OC)ccc2OC)c1=O`, the IC50 on NS3h 1b (con1) and at NS3h 2a (JFH1) was > 100 µM (inactive) throughout.
On to `Cc1ccc2nc(-c3ccc4nc(-c5ccc(NC(=O)c6ccc7ccccc7c6)cc5)sc4c3)sc2c1S(=O)(=O)O`, for which the results for the IC50 on NS3h 1b (con1) and on NS3h 2a (JFH1) were 2.93 µM and 1.71 µM, respectively.
In the same order, the values of `Cc1ccc2nc(-c3ccc4nc(-c5ccc(NC(=O)c6ccc(C(F)(F)F)cc6)cc5)sc4c3)sc2c1S(=O)(=O)O` are 1.76 µM and 2.51 µM.
On to `O=c1c2c(-c3ccco3)csc2nc(SCc2cn3ncccc3n2)n1-c1ccccc1`, for which the IC50 on NS3h 1b (con1) and on NS3h 2a (JFH1) was > 100 µM (inactive) throughout.
Consider `Cc1ccc(C(=O)Nc2ccc(-c3nc4ccc(-c5nc6ccc(C)c(S(=O)(=O)O)c6s5)cc4s3)cc2)cc1`, for which the IC50 at NS3h 1b (con1) is 3.69 µM; on NS3h 2a (JFH1), 3.35 µM.
In the same order, the values of `O=c1c(O)cccc2cc(O)c(O)c(O)c12` are > 100 µM (inactive) and > 100 µM (inactive).
In the case of `C/C(=N\NC(N)=S)c1cc(-c2ccccc2)c(-c2ccccc2)s1`, the IC50 on NS3h 1b (con1) and at NS3h 2a (JFH1) was > 100 µM (inactive) in each case.
Regarding `NC(=S)N/N=C/c1ccc(C23CC4CC(CC(C4)C2)C3)cc1`, the IC50 at NS3h 1b (con1) and on NS3h 2a (JFH1) was > 100 µM (inactive) in each case.
With `Cc1ccc2nc(-c3ccc4nc(-c5ccc(NC(=O)c6ccccc6)cc5)sc4c3)sc2c1S(=O)(=O)O`, on NS3h 1b (con1), the IC50 entry is “inactive”. On NS3h 2a (JFH1), the IC50 is 4.07 µM.
Turning to `CCCCCOc1ccc(C2C(C(=O)c3ccc(C)o3)=C(OC)C(=O)N2c2cc(C)on2)cc1` (configuration not stated), the IC50 at NS3h 1b (con1) and on NS3h 2a (JFH1) was > 100 µM (inactive) in each case.
In the case of `Cc1ccc2nc(-c3ccc4nc(-c5ccc(NC(=O)c6ccc(Cl)cc6)cc5)sc4c3)sc2c1S(=O)(=O)O`, the IC50 was 4.31 µM on NS3h 1b (con1) and 2.66 µM at NS3h 2a (JFH1).
Regarding `COc1ccc([C@H]2C[C@@H](c3ccccc3)Oc3cc(OC)c(OC)c(OC)c32)cc1`, the IC50 at NS3h 1b (con1) and at NS3h 2a (JFH1) was > 100 µM (inactive) throughout.
Turning to `Cc1ccc(NC(=O)C2=C(c3ccccc3)S(=O)(=O)CCS2(=O)=O)cc1`, the IC50 at NS3h 1b (con1) and on NS3h 2a (JFH1) was > 100 µM (inactive) throughout.
Consider `COc1cc2oc(=O)cc(-c3ccc(-c4ccc(CO)cc4)cc3)c2c(OC)c1OC`, for which the IC50 at NS3h 1b (con1) and at NS3h 2a (JFH1) was > 100 µM (inactive) in each case.
For the compound `Nc1c(C(=O)Nc2ccccc2F)sc2nc(-c3ccco3)ccc12`, the IC50 on NS3h 1b (con1) and on NS3h 2a (JFH1) was > 100 µM (inactive) in each case.
Turning to `Cc1ccc2nc(-c3ccc(NC(=O)c4ccc(F)cc4)cc3)sc2c1S(=O)(=O)O`, the IC50 at NS3h 1b (con1) and on NS3h 2a (JFH1) was > 100 µM (inactive) each time.
As to `Cc1ccc(NC(=O)Nc2ccc(-c3nc4ccc(-c5nc6ccc(C)c(S(=O)(=O)O)c6s5)cc4s3)cc2)cc1`, the IC50 at NS3h 1b (con1) is 5.93 µM; at NS3h 2a (JFH1) it was 3.21 µM.
As to `COc1cc(Br)cc(C2C(C(=O)c3ccc(C)o3)=C(O)C(=O)N2Cc2ccco2)c1OC` (configuration not stated), the IC50 on NS3h 1b (con1) and at NS3h 2a (JFH1) was > 100 µM (inactive) throughout.
As for `Cc1ccc(C(=O)C2=C(O)C(=O)N(Cc3ccccc3)C2c2cc(Cl)cc(Cl)c2)o1` (configuration not stated), the IC50 on NS3h 1b (con1) and at NS3h 2a (JFH1) was > 100 µM (inactive) in each case.
With `Cc1ccc2nc(-c3ccc4nc(-c5ccc(N)cc5)sc4c3)sc2c1S(=O)(=O)O`, the IC50 entry on NS3h 1b (con1) and at NS3h 2a (JFH1) was “inactive” in each case.
For the compound `CN(C)S(=O)(=O)c1cccc(NC(=S)N/N=C/c2cc(Br)ccc2O)c1`, the IC50 on NS3h 1b (con1) and at NS3h 2a (JFH1) was > 100 µM (inactive) in each case.
As for `Cc1ccc2nc(-c3ccc(NC(=S)Nc4ccccc4Br)cc3)sc2c1`, the IC50 is > 24 µM (inactive) on NS3h 1b (con1) and > 100 µM (inactive) at NS3h 2a (JFH1).
`O=C1OC(c2ccc(F)cc2)=C/C1=C/c1ccc([N+](=O)[O-])o1`: the IC50 at NS3h 1b (con1) and at NS3h 2a (JFH1) was > 100 µM (inactive) each time.
As for `N#C/C(=C\c1ccc(O)c(O)c1)S(=O)(=O)c1ccccc1`, the IC50 at NS3h 1b (con1) and on NS3h 2a (JFH1) was > 100 µM (inactive) in each case.
As to `CC(C)C(C)(C#N)NC(=O)CSc1nc2scc(-c3ccco3)c2c(=O)n1-c1ccccc1` (configuration not stated), the IC50 at NS3h 1b (con1) and at NS3h 2a (JFH1) was > 100 µM (inactive) in each case.
Regarding `COc1ccc(C(=O)Nc2ccc(-c3nc4ccc(-c5nc6ccc(C)c(S(=O)(=O)O)c6s5)cc4s3)cc2)cc1`, the IC50 at NS3h 1b (con1) was 8.41 µM; on NS3h 2a (JFH1) it was 5.7 µM.
The corresponding values for `Cc1ccc2nc(-c3ccc4nc(NC(=O)c5ccc6ncoc6c5)sc4c3)sc2c1` are “inactive” and “inactive”.
In the same order, the values of `Cc1ccc2nc(-c3ccc4nc(-c5ccc6nc(-c7ccc8nc(-c9ccc(N)cc9)sc8c7)sc6c5)sc4c3)sc2c1S(=O)(=O)O` are 2.13 µM and 1.98 µM.
As to `Cc1ccc2nc(-c3ccc4nc(-c5ccc(NC(=O)c6ccc(NC(=O)OCC7c8ccccc8-c8ccccc87)cc6)cc5)sc4c3)sc2c1S(=O)(=O)O`, the IC50 is 6.56 µM on NS3h 1b (con1) and 6.04 µM at NS3h 2a (JFH1).
In the same order, the values of `CCOc1ccc(C2C(C(=O)c3ccc(C)o3)=C(O)C(=O)N2c2cc(C)on2)cc1` (configuration not stated) are > 100 µM (inactive) and > 100 µM (inactive).
The corresponding values for `CCCCOc1ccccc1C(=O)NNC(=S)NC(=O)c1ccccc1[N+](=O)[O-]` are > 100 µM (inactive) and > 100 µM (inactive).
In the same order, the values of `Cc1ccc2nc(-c3ccc(NC(=O)c4ccc5ncoc5c4)cc3)sc2c1` are “inactive” and “inactive”.
Turning to `CCCCCCCCCc1nc2sc3c(c2c(=O)n1NC(=O)c1ccccc1[N+](=O)[O-])CC(C)(C)OC3`, the IC50 at NS3h 1b (con1) and at NS3h 2a (JFH1) was > 100 µM (inactive) in each case.
As for `Cc1ccc2nc(-c3ccc4nc(-c5ccc(NC(=O)c6ccc(N)cc6)cc5)sc4c3)sc2c1S(=O)(=O)O`, the IC50 is 7.85 µM at NS3h 1b (con1) and 4.39 µM at NS3h 2a (JFH1).
With `COc1cc2oc(=O)cc(-c3ccc(-c4ccc(NC(C)=O)cc4)cc3)c2c(OC)c1OC`, the IC50 at NS3h 1b (con1) and on NS3h 2a (JFH1) was > 100 µM (inactive) in each case.
Turning to `Cc1ccc(/C=C/C(=O)Nc2ccc([N+](=O)[O-])c(NC(=O)/C=C/c3ccc(C)o3)c2)o1`, the IC50 at NS3h 1b (con1) is > 38.1 µM (inactive); on NS3h 2a (JFH1), > 100 µM (inactive).
For `COc1cc(Br)cc(C2C(C(=O)c3ccc(C)o3)=C(O)C(=O)N2Cc2ccccc2)c1OC` (configuration not stated), the IC50 at NS3h 1b (con1) and at NS3h 2a (JFH1) was > 100 µM (inactive) in each case.
Take `COC(=O)c1ccc(C(=O)Nc2ccc(-c3nc4ccc(-c5nc6ccc(C)c(S(=O)(=O)O)c6s5)cc4s3)cc2)cc1`: the IC50 at NS3h 1b (con1) is 6.85 µM; at NS3h 2a (JFH1) it was 4.98 µM.
`CCN(CC)S(=O)(=O)c1cccc(C(=O)N/N=C/c2ccc(O)c(O)c2O)c1`: the IC50 at NS3h 1b (con1) and at NS3h 2a (JFH1) was > 100 µM (inactive) each time.
For the compound `O=C(c1ccc2nc(-c3ccco3)c(-c3ccco3)nc2c1)N1CCN(c2ccccc2)CC1`, the IC50 at NS3h 1b (con1) and on NS3h 2a (JFH1) was > 100 µM (inactive) in each case.
On to `C=C1c2cccc(O)c2C(O)=C2C(=O)[C@]3(O)C(O)=C(C(N)=O)C(=O)[C@@H](N(C)C)[C@@H]3[C@@H](O)[C@H]12`, for which, on NS3h 1b (con1), the IC50 result is “inactive”. On NS3h 2a (JFH1), the IC50 was > 100 µM (inactive).
The corresponding values for `Cc1ccc2nc(-c3ccc4nc(-c5ccc(NC(=O)c6ccc(F)cc6)cc5)sc4c3)sc2c1S(=O)(=O)O` are 5.38 µM and 2.75 µM.
The corresponding values for `Cc1ccc(C(=O)C2=C(O)C(=O)N(Cc3ccco3)C2c2cc(Cl)cc(Cl)c2)o1` (configuration not stated) are > 100 µM (inactive) and > 100 µM (inactive).

As usually defined, the IC50 is the point on the concentration scale where inhibition reaches its midpoint.

(Values after PubChem BioAssay AID504419 (The Scripps Research Institute Molecular Screening Center, 2011).)
